pKi: −log10 of the molar value.
Legend:
M5 = target: T1, M5 (Homo sapiens, UniProt P08912); test: competitive radioligand binding, HEK293 membranes
T1 construct: gene CHRM5; full-length receptor; HEK293 with TRUPATH sensors (function)
T1 sequence (P08912 1-532): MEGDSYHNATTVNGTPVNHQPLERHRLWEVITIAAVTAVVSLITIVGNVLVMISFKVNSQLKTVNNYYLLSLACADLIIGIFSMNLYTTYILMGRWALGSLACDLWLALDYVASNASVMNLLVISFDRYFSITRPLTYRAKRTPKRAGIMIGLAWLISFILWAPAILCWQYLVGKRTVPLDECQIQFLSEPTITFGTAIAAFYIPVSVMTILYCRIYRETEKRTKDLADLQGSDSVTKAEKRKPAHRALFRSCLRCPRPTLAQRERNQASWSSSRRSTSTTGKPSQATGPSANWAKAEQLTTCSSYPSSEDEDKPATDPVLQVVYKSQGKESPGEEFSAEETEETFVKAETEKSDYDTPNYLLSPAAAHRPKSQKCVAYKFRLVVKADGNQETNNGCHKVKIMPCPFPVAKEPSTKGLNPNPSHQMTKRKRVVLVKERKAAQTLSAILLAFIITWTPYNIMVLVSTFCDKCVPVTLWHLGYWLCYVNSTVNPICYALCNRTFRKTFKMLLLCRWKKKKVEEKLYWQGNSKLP

α1A = α1A (Homo sapiens, UniProt P35348); test: competitive radioligand binding, HEK293 membranes; parameters: gene ADRA1A; full-length receptor; HEK293 cell membranes
Text: competitive radioligand binding, HEK293 membranes on α1A

α1A, sequence (P35348 whole entry): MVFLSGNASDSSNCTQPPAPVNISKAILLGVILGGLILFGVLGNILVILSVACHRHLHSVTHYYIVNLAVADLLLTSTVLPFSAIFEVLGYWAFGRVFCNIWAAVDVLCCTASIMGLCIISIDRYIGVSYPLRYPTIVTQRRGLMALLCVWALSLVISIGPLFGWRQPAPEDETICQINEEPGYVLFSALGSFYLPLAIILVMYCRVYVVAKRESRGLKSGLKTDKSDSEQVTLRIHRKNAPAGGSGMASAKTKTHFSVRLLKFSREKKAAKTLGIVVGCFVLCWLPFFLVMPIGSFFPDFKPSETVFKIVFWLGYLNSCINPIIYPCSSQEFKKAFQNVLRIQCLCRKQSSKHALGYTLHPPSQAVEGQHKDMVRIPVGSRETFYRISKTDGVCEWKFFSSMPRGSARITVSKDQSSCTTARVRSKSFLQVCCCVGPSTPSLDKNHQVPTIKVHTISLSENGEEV

CCCCCCOc1nsnc1C1=CCCNC1 [N-desmethylxanomeline]
pKi (M5): 7.03
pKi (α1A): 6.55

Source: publication doi:10.1101/2025.11.20.689572v1 (biorxiv, 2025)
